Tested on: ATXN1(60Q)
Assay: Daoy-ATXN1(60Q)-mATXN1 MSD assay (CTG normalized)
Format: cell-based
Conditions: Daoy-Flag-ATXN1(60Q) stable cells, compound added Day 2, lysis Day 3, final DMSO 0.3%, read-out: Daoy-ATXN1(60Q)-mATXN1 MSD (CTG normalized) DC50
Description: Protocol for MSD Assay: Daoy-ATXN1(600)-mATXN1 MSD (CTG normalized)
The Flag-ATXN1(60Q) gene is synthesized by Genescript and cloned into the pLVX-IRES-Puro vector (Takarabio, catalog No. 632183) using EcoRI/BamHI restriction enzyme sites. Lentivirus is made by transfecting HEK293T cells with pLVX-IRES-Puro-Flag-ATXN1(60Q) plasmids and packaging plasmids psPAX2 and pMD2.G at 4:3:1 ratio (8:6:[…], respectively) in 10 cm plates, and are harvested at 48 hours post transfection. Daoy cells (ATCC catalog No. HTB-186) seeded in T25 flasks are infected with the lentivirus in the presence of 8 µg/mL polybrene (Sigma, TR-1003-G) for 24 hours. 48 hours post infection, the cells are selected using 0.5 […] (Sigma, P8833) for more than 5 days until all cells in the uninfected group die. The expression of Flag-ATXN1(60Q) is verified by anti-Flag immunoblot using anti-Flag antibody (Sigma, F1804-200UG, M2).
As explained above, Daoy-Flag-ATXN1(60Q) cells are prepared as a stable cell line by infecting Daoy cells with lentivirus. The media for the cells is EMEM (ATTC, 30-2008) with 10% fetal bovin serum (FBS).
On Day 1, the Daoy-Flag-ATXN1(60Q) cells are seeded in a 96 well plate at a concentration of 1.2×10^4/well. On Day 2, the cells are treated with test compounds at test concentrations (compounds are serially diluted with DMSO to obtain test concentrations, such that final DMSO concentration is 0.3%). On Day 3, the cells are washed with 100 μL of phosphate-buffered saline (PBS) per well, and then 30 μL of radioimmuno-precipitation assay (RIPA) buffer (with protease and phosphatase inhibitor cocktail) is added to each well.
The well plate is then cooled on ice for 30 minutes in order to complete lysis, and MSD samples are prepared using 10 μL of Daoy-Flag-ATXN1-60Q lysate and 90 μL of RIPA buffer with gentle mixing. Each MSD sample has a total volume of 100 μL, and is used immediately or stored at −80° C.
A standard Meso Scale Discovery (MSD) plate is coated with anti-Flag (Sigma, F1804-200UG, M2) in PBS at 1:500 dilution ratio and 40 µL/well, and is incubated at 4° C. overnight with shaking at 600 rpm. Then, the MSD plate is washed 3 times with 150 µL/well of 1X TBST (tris-buffered saline (TBS) with Tween 20) buffer, and the MSD plate is blocked with 150 μL of blocking buffer [3% Blocker A in 1X TBST, (3 g Blocker A per 100 mL 1X TBST)] and shaken for 1 hour at 600 rpm at room temperature. Then, the MSD plate is washed three times with 150 μL/well of 1X TBST. Next, the diluted lysate samples (from Sample Preparation above) are added to the MSD plate at 25 μL/well, and the MSD plate is shaken at 600 rpm for 1 hour at room temperature. Then the MSD plate is washed 3 times with 150 μL/well of 1X TBST.
Detection antibody anti-Ataxin 1 (G-bio, ITA1916) (1:500), which is prepared in antibody detection buffer (1% Blocker A in 1X TBST), is then added to the MSD plate at 25 µL/well, and the MSD plate is shaken at 600 rpm for 1 hour at room temperature. The MSD plate is then washed three times with 150 μL/well of 1X TBST. Next, a secondary detection antibody, Goat anti-rabit (GAR) with SULFO-TAG (1:500), which is prepared in antibody detection buffer (1% Blocker A in 1X TBST), is added at 25 μL/well and the MSD plate is shaken at 600 rpm for 1 hour at room temperature. Then the MSD plate is washed 3 times with 150 μL/well of 1X TBST, and 2X MSD reading buffer is added at 150 μL/well (diluted from 4x MSD reading buffer with water). Finally, the signal from each well is measured on the MSD Meso QuickPle SQ120 Plate Reader. DC50 data is calculated using collaborate drug discovery (CDD) software (https://www.collaborativedrug.com/about).

Row | SMILES | DC50 [µM]
1 | O=C1Nc2ccc(Br)cc2/C1=C(/Nc1c[nH]cn1)c1cccc(O)c1 [Example 17, (Z)-3-(((1H-imidazol-4-yl)amino)(3-hydroxyphenyl)methylene)-5-bromoindolin-2-one] | < 10
2 | Nc1cccc(/C(Nc2cn[nH]c2)=C2/C(=O)Nc3ccc(Br)cc32)c1 [Example 59, (Z)-3-(((1H-pyrazol-4-yl)amino)(3-aminophenyl)methylene)-5-bromoindolin-2-one] | < 10
3 | O=C1Nc2ccc(Br)cc2/C1=C(/Nc1ccnnc1)c1ccc2[nH]c(=O)oc2c1 [Example 64, (Z)-6-((5-bromo-2-oxoindolin-3-ylidene)(pyridazin-4-ylamino)methyl) benzo[d]oxazol-2(3H)-one] | < 10
4 | O=C1Nc2ccc(Br)cc2/C1=C(/Nc1cn[nH]c1)c1cccc(O)c1 [Example 70, (Z)-3-(((1H-pyrazol-4-yl)amino)(3-hydroxyphenyl)methylene)-5-bromoindolin-2-one] | < 10
5 | NCCN/C(=C1\C(=O)Nc2ccc(Br)cc21)c1ccc2[nH]c(=O)oc2c1 [Example 57, (Z)-6-(((2-aminoethyl)amino)(5-bromo-2-oxoindolin-3-ylidene)methyl) benzo[d]oxazol-2(3H)-one] | 10 to 30
6 | Nc1ccc(/C(Nc2ccnnc2)=C2/C(=O)Nc3ccc(Br)cc32)cc1O [Example 63, (Z)-3-((4-amino-3-hydroxyphenyl)(pyridazin-4-ylamino)methylene)-5-bromoindolin-2-one] | < 10
7 | O=C1Nc2ccc(Br)cc2/C1=C(/Nc1cncnc1)c1cccc(O)c1 [Example 69, (Z)-5-bromo-3-((3-hydroxyphenyl) (pyrimidin-5-ylamino)methylene)indolin-2-one] | < 10
8 | O=C1Nc2ccc(Br)cc2/C1=C(/NCCCF)c1ccccc1 [Example 19, (Z)-5-bromo-3-(((3-fluoropropyl)amino) (phenyl)methylene) indolin-2-one] | < 10
9 | NCCN/C(=C1\C(=O)Nc2ccc(Br)cc21)c1cc(N)ccc1F [Example 32, (Z)-3-((5-amino-2-fluorophenyl)((2-aminoethyl)amino)methylene)-5-bromo indolin-2-one] | < 10
10 | N/C(=C1\C(=O)Nc2ccc(Br)cc21)c1cc(O)c(Br)cn1 [Example 83, (Z)-3-(amino(5-bromo-4-hydroxypyridin-2-yl)methylene)-5-bromoindolin-2-one] | > 30
11 | O=C1Nc2ccc(Br)cc2/C1=C(\c1cccc(O)c1)N1CCCCC1 [Example 12, (Z)-5-bromo-3-((3-hydroxyphenyl) (piperidin-1-yl)methylene) indolin-2-one] | > 30
12 | C/C(=C1\C(=O)Nc2ccc(Br)cc21)c1cc(O)c(O)c(Br)c1 [Example 98, 5-Bromo-3-(1-(3-bromo-4,5-dihydroxyphenyl)ethylidene)indolin-2-one] | > 30
13 | O=C1Nc2ccc(Br)cc2/C1=C(/Nc1cncnc1)c1ccccc1 [Example 45, (Z)-5-bromo-3-(phenyl(pyrimidin-5-ylamino)methylene) indolin-2-one] | < 10
14 | Nc1cccc(/C(NC2CNC2)=C2/C(=O)Nc3ccc(OC(F)(F)F)cc32)c1 [Example 34, (Z)-3-((3-aminophenyl)(azetidin-3-ylamino)methylene)-5-(trifluoromethoxy) indolin-2-one] | < 10
15 | C/C(=C1\C(=O)Nc2ccc(Br)cc21)c1ccc(F)c(O)c1 [Example 92, (E)-5-bromo-3-(1-(4-fluoro-3-hydroxyphenyl)ethylidene) indolin-2-one] | < 10
16 | O=C1Nc2ccc(Br)cc2/C1=C(/Nc1cnn(CCO)c1)c1ccccc1 [Example 53, (Z)-5-bromo-3-(((1-(2-hydroxyethyl)-1H-pyrazol-4-yl)amino)(phenyl)methylene)indolin-2-one] | 10 to 30

Row | SMILES | DC50 [µM]
17 | Cn1cc(N/C(=C2\C(=O)Nc3ccc(Br)cc32)c2cccc(O)c2)cn1 [Example 71, (Z)-5-bromo-3-((3-hydroxyphenyl)((1-methyl-1H-pyrazol-4-yl)amino)methylene)indolin-2-one] | < 10
18 | Nc1cccc(/C(NC2CNC2)=C2/C(=O)Nc3ccc(Br)cc32)c1 [Example 33, (Z)-3-((3-aminophenyl)(azetidin-3-ylamino)methylene)-5-bromoindolin-2-one] | < 10
19 | O=C1Nc2ccc(Br)cc2/C1=C(/NC1CNC1)c1cccc(F)c1 [Example 37, (Z)-3-((azetidin-3-ylamino)(3-fluorophenyl)methylene)-5-bromoindolin-2-one] | < 10
20 | NCCN/C(=C1\C(=O)Nc2ccc(Br)cc21)c1cccc(C(F)F)c1 [Example 30, (Z)-3-(((2-aminoethyl)amino)(3-(difluoromethyl)phenyl)methylene)-5-bromoindolin-2-one] | < 10
21 | O=C1Nc2ccc(Br)cc2/C1=C(/Nc1ccc(C(=O)O)cc1)c1cccc(O)c1 [Example 74, (Z)-4-(((5-bromo-2-oxoindolin-3-ylidene)(3-hydroxyphenyl)methyl)amino)benzoic acid] | 10 to 30
22 | O=C1Nc2ccc(Br)cc2/C1=C(/Nc1cnn(C(F)F)c1)c1ccccc1 [Example 55, (Z)-5-bromo-3-(((1-(difluoromethyl)-1H-pyrazol-4-yl)amino)(phenyl)methylene)indolin-2-one] | > 30
23 | O=C1Nc2ccc(Br)cc2/C1=C(/Nc1c[nH]nc1Cl)c1ccccc1 [Example 54, (Z)-5-bromo-3-((3-chloro-1H-pyrazol-4-ylamino)(phenyl)methylene)indolin-2-one] | > 30
24 | O=C1Nc2ccc(Br)cc2/C1=C(/Nc1cnccn1)c1ccccc1 [Example 46, (Z)-5-bromo-3-(phenyl(pyrazin-2-ylamino)methylene) indolin-2-one] | > 30
25 | N#Cc1n[nH]cc1N/C(=C1\C(=O)Nc2ccc(Br)cc21)c1ccccc1 [Example 48, (Z)-4-(((5-bromo-2-oxoindolin-3-ylidene)(phenyl)methyl)amino)-1H-pyrazole-3-carbonitrile] | > 30
26 | CN/C(=C1\C(=O)Nc2ccc(Br)cc21)c1cccc(O)c1 [Example 1, (Z)-5-bromo-3-((3-hydroxyphenyl) (methylamino)methylene) indolin-2-one] | < 10
27 | COc1cc(/C(Nc2ccnnc2)=C2/C(=O)Nc3ccc(Br)cc32)ccc1N [Example 62, (Z)-3-((4-amino-3-methoxyphenyl)(pyridazin-4-ylamino)methylene)-5-bromoindolin-2-one] | > 30
28 | CCC/C(=C1\C(=O)Nc2ccc(Br)cc21)c1cccc(O)c1 [Example 100, (E)-5-bromo-3-(1-(3-hydroxyphenyl)butylidene)indolin-2-one] | < 10
29 | O=C1Nc2ccc(Br)cc2/C1=C(/Nc1cncs1)c1ccccc1 [Example 49, (Z)-5-bromo-3-(phenyl(thiazol-5-ylamino)methylene)indolin-2-one] | > 30
30 | O=C1Nc2ccc(Br)cc2/C1=C(/Nc1cnnc(Cl)c1)c1ccccc1 [Example 47, (Z)-5-bromo-3-((6-chloropyridazin-4-ylamino)(phenyl)methylene)indolin-2-one] | > 30
31 | O=C1Nc2ccc(Br)cc2/C1=C(/Nc1ccnnc1)c1cccc(C(F)F)c1 [Example 41, (Z)-5-bromo-3-((3-(difluoromethyl)phenyl)(pyridazin-4-ylamino)methylene) indolin-2-one] | < 10

Source: US20250051282A1, “COMPOUNDS FOR TREATING POLYQ-RELATED NEURODEGENERATIVE DISORDERS” (HANGZHOU JIJING PHARMACEUTICAL TECHNOLOGY LIMITED, priority 2021, published 2025)
